Laboratory results reported in patent US20060100226A1, “2-Thiopyrimidinones as therapeutic agents” (priority 2004, published 2006).

Tests used:
[1] = molecular target: T1, murine MEKK2 (mMEKK2) (Mus musculus, UniProt Q61083); assay: MEKK2 PhosphoELISA (mMEKK2/MKK4); type: biochemical; conditions: substrate MKK4/SKK1 (unactive), ATP final 10 μM, O.D. 450 nm
T1 sequence (Q61083 1-619): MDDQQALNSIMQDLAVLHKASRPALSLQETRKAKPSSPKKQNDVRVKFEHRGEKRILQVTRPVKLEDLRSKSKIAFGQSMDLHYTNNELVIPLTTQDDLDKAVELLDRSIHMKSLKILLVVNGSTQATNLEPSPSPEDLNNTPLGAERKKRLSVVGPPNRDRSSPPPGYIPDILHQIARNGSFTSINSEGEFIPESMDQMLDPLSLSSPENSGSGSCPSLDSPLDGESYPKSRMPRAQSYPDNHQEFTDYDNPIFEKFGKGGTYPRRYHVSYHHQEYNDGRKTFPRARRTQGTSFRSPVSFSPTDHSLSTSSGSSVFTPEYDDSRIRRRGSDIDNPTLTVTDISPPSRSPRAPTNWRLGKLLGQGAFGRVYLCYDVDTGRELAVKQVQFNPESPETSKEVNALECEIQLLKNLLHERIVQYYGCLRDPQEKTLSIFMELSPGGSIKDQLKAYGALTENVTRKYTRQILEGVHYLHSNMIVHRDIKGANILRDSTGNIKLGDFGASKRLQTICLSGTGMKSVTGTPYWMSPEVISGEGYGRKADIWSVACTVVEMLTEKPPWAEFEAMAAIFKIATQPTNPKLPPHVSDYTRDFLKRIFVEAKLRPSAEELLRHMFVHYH
Text: Another useful method for assessing protein kinase inhibition, and specifically MEKK2 inhibition, of compounds of the invention involves the MEKK2 phospho-antibody enzyme-linked immunosorbent assay (PhosphoELISA). This screening panel, which involves relatively few steps, is a useful indicator of potential inhibitors of MEKK2. Reactions to murine MEKK2 are observed as optical density measurements at an absorbance of 450 nm. Inhibitory activities can be expressed in terms of IC50, where IC50 is the molar concentration of compound required to inhibit protein kinase binding by 50%.
A phospho-antibody enzyme-linked immunosorbent assay (PhosphoELISA) was used to screen potential inhibitors of MEKK2. The assay was performed as follows: Compounds to be tested were weighed and solubilized in DMSO (Sigma) to a stock concentration of 10 mM. Serial dilutions starting from 1 mM were prepared with additional DMSO. These dilutions were further diluted to 250 μM in kinase reaction buffer [20 mM Hepes pH 7.5, 5 mM MgCl2, 1 mM DTT (Dithiothreitol-Sigma), 1 mM NaVO4 (sodium vanadate- Sigma). A 25 μl aliquot of this solution was transferred to a glutathione coated 96-well microplate (Pierce). A stock aliquot containing 50-125 ng of murine MEKK2 (mMEKK2) was added to each well and incubated on the microplate for 10 minutes at room temperature. A 25 μl solution of MKK4/SKK1 (unactive) was diluted 1:200 in kinase assay buffer and added to the reaction plate followed by 50 μl of 25 μM ATP (adenosine triphosphate) to afford a final well concentration of 10 μM. The reaction was allowed to proceed for 60 minutes at room temperature before washing 3 times with wash buffer [100 mM phosphate pH 7.5, 0.05% TWEEN 20 (Sigma)]. A solution of anti-phospho MKK4/SEK1 antibody (Calbiochem) and biotin anti rabbit IgG (Jackson Immunoresearch) was diluted 1:2500 in kinase reaction buffer and added to the appropriate wells. The reaction was incubated for 60 minutes at room temperature. The microplate was washed 3 times with wash buffer and 100 ul of streptavidin horseradish peroxidase (HRP-Pierce) was added and incubated for 30 minutes at room temperature. The microplate was washed 3 times with wash buffer and 100 μl of TMB (3,3′,5,5′-tetramethylbenzidine-Sigma) was added. The assay was allowed to develop for 15-20 minutes then the reaction was stopped with the addition of 100 μl of 0.2 N sulfuric acid. The optical density (O.D.) of the plate was read on the Victor™ plate reader using the absorbance at 450 nm.

[2] = molecular target: T1, murine MEKK2 (mMEKK2); assay: TR-FRET kinase assay (mMEKK2/MBP); type: biochemical; conditions: substrate biotin MBP, 60 minutes at room temperature
Procedure: In one approach, MEKK2 inhibitory activity of compounds of the invention can be assessed using the time-resolved Fluorescence Resonance Energy Transfer (TR-FRET) assay detailed in Example 5. In this assay, the excitation energy of one fluorescent molecule (the donor) is transferred by a resonance mechanism to a nearby second fluorescent molecule (the acceptor), which then releases its fluorescent energy through fluorescent emission. This fluorescent energy is measured using a time-resolved fluorescence measurement protocol (LANCE high count 615/665); excitation occurred with 1,000 flashes at 325 nm, measurement was delayed by 100 μs, and data were acquired for 50 μs at 615 and 665 nm.
A TR-FRET kinase assay was used to screen potential inhibitors of MEKK2. The assay was performed as follows: Compounds to be tested were weighed and solubilized in DMSO (Sigma) to a stock concentration of 10 mM. Serial dilutions starting from 1 mM were prepared with additional DMSO. These dilutions were further diluted to 250 μM in kinase reaction buffer [20 mM Hepes pH 7.5, 5 mM MgCl2, 1 mM DTT (Dithiothreitol-Sigma), 1 mM NaVO4 (sodium vanadate-Sigma). A 25 μl aliquot of this solution was transferred to a black 96-well nonbinding surface microplate (Fisher). A stock aliquot containing […] of murine MEKK2 (mMEKK2) was diluted in the kinase reaction buffer and incubated with the compounds on the microplate for 10 minutes. A 25 μl aliquot of a 138 ng solution of biotin MBP (myelin basic protein—Upstate Biotechnology) was added to the reaction followed by 25 ul of a 25 ng solution of anti-phospho MBP antibody (Upstate Biotechnology) diluted in kinase reaction buffer. Finally an aliquot (50 μl) of a 5 uM solution of ATP (adenosine triphosphate) was added and the reaction was allowed to proceed for 60 minutes at room temperature. The reaction was stopped by the addition of 50 μL of a 12.5 ng solution of europium labeled anti-mouse IgG (Perkin Elmer) and 45 ng of Cy5 labeled streptavidin (Jackson Immunoresearch) in termination buffer (20 mM Hepes pH 7.5, 100 mM EDTA; Sigma). The assay was allowed to equilibrate for 45 minutes before placing the plate on the Victor™ plate reader. The plate was read using the 615/665 LANCE protocol.

## N#Cc1c(-c2ccc(-c3cc4ccccc4s3)cc2)nc(SCc2cccc(NC(=O)c3ccc(Cl)c(Cl)c3)c2)[nH]c1=O [Example 2aa, N-{3-[4-(4-Benzo[b]thiophen-2-yl-phenyl)-5-cyano-6-oxo-1,6-dihydro-pyrimidin-2-ylsulfanylmethyl]-phenyl}-3,4-dichloro-benzamide]
[1]
  IC50: < 1 µM

## N#Cc1c(-c2cccc(OC(F)(F)F)c2)nc(SCc2cccc(NC(=O)c3ccc(Cl)c(Cl)c3)c2)[nH]c1=O [Example 2cc, 3,4-Dichloro-N-{3-[5-cyano-6-oxo-4-(3-trifluoromethoxy-phenyl)-1,6-dihydro-pyrimidin-2-ylsulfanylmethyl]-phenyl}-benzamide]
[1]
  IC50: < 1 µM

## CC(C)(C)OC(=O)n1c(-c2cccc(-c3nc(SCc4cccc(NC(=O)c5ccc(Cl)c(Cl)c5)c4)[nH]c(=O)c3C#N)c2)cc2ccccc21 [Example 2jj, 2-(3-{5-Cyano-2-[3-(3,4-dichloro-benzoylamino)-benzylsulfanyl]-6-oxo-1,6-dihydro-pyrimidin-4-yl}-phenyl)-indole-1-carboxylic acid tert-butyl ester]
[1]
  IC50: < 1 µM

## N#Cc1c(-c2cccc(-c3cc4ccccc4[nH]3)c2)nc(SCc2cccc(NC(=O)c3ccc(Cl)c(Cl)c3)c2)[nH]c1=O [Example 2kk, 3,4-Dichloro-N-(3-{5-cyano-4-[3-(1H-indol-2-yl)-phenyl]-6-oxo-1,6-dihydro-pyrimidin-2-ylsulfanylmethyl}-phenyl)-benzamide]
[1]
  IC50: < 5 µM

## N#Cc1c(-c2c[nH]c3ccccc23)nc(SCc2cccc(NC(=O)c3ccc(Cl)c(Cl)c3)c2)[nH]c1=O [Example 2ll, 3,4-Dichloro-N-{3-[5-cyano-4-(1H-indol-3-yl)-6-oxo-1,6-dihydro-pyrimidin-2-ylsulfanylmethyl]-phenyl}-benzamide]
[1]
  IC50: < 5 µM

## N#Cc1c(-c2c[nH]c3ccc(Br)cc23)nc(SCc2cccc(NC(=O)c3ccc(Cl)c(Cl)c3)c2)[nH]c1=O [Example 2mm, N-{3-[4-(5-Bromo-1H-indol-3-yl)-5-cyano-6-oxo-1,6-dihydro-pyrimidin-2-ylsulfanylmethyl]-phenyl}-3,4-dichloro-benzamide]
[1]
  IC50: < 1 µM

## N#Cc1c(-c2cccc(Br)c2)nc(SCc2cccc(NC(=O)c3ccc(Cl)c(Cl)c3)c2)[nH]c1=O [Example 2nn, N-{3-[4-(3-Bromo-phenyl)-5-cyano-6-oxo-1,6-dihydro-pyrimidin-2-ylsulfanylmethyl]-phenyl}-3,4-dichloro-benzamide]
[1]
  IC50: < 1 µM

## COc1cccc(-c2nc(SCc3cccc(NC(=O)c4ccc(F)c(F)c4)c3)[nH]c(=O)c2C#N)c1 [Example 2oo, N-{3-[5-Cyano-4-(3-methoxy-phenyl)-6-oxo-1,6-dihydro-pyrimidin-2-ylsulfanylmethyl]-phenyl}-3,4-difluoro-benzamide]
[1]
  IC50: < 5 µM

## COc1cccc(-c2nc(SCc3cccc(NC(=O)Nc4ccc(Cl)c(Cl)c4)c3)[nH]c(=O)c2C#N)c1 [Example 3a, 1-{3-[5-Cyano-4-(3-methoxy-phenyl)-6-oxo-1,6-dihydro-pyrimidin-2-ylsulfanylmethyl]-phenyl}-3-(3,4-dichloro-phenyl)-urea]
[1]
  IC50: < 1 µM

## COc1cccc(-c2nc(SCc3cccc(NCc4cccc(OCCN(C)C)c4)c3)[nH]c(=O)c2C#N)c1 [Example 4a]
[1]
  IC50: > 40 µM

## CN(CCOc1ccc(-c2nc(SCc3cccc(NC(=O)c4ccc(Cl)c(Cl)c4)c3)[nH]c(=O)c2C#N)cc1)c1ccncc1 [Example 4aa]
[1]
  IC50: 20 µM

## COc1cccc(-c2nc(SCc3cccc(NCc4cnc(O)nc4O)c3)[nH]c(=O)c2C#N)c1 [Example 4d]
[1]
  IC50: > 40 µM

## CCc1nc(C)c(-c2nc(SCc3cccc(NC(=O)c4ccc(Cl)c(Cl)c4)c3)[nH]c(=O)c2C#N)[nH]1 [Example 4dd]
[1]
  IC50: > 40 µM

## N#Cc1c(-c2cccc(F)c2)nc(SCc2cccc(NC(=O)c3ccc(Cl)c(Cl)c3)c2)[nH]c1=O [Example 4o]
[2]
  IC50: < 5 µM

## N#Cc1c(-c2cccc(NCC[C@@H](O)[C@@H](O)CO)c2)nc(SCc2cccc(NC(=O)c3ccc(Cl)c(Cl)c3)c2)[nH]c1=O [Example 4y]
[2]
  IC50: < 5 µM
